According to patent US11793781B2, “Autoimmune disorder treatment using RXR agonists” (Io Therapeutics, Inc., priority 2011, dated 2023):

Assays:
[1] = system: FXR/RXR; experiment: Permissive RXR heterodimer transactivation; assay type: cell-based; conditions: appropriate receptor and reporter constructs
[2] = system: experimental autoimmune encephalomyelitis (EAE); experiment: EAE in C57BL/6 (B6) mice (MOG peptide); assay type: in vivo; conditions: 50 ug i.p. every other day from day 7, FIG. 5
Procedure: Mice were also given 200 ng of pertussis toxin in PBS administered by inter-peritoneal (i.p.) injection on the same day as MOG emulsion injection (day 0) and 2 days later (day 2). […] Mice were scored using the following scale: 0—Mice have no disease, 1—Mice have distal limp tail or rear leg weakness (paresis), 1.5—Mice have distal limp tail and rear leg weakness, 2—Mice have complete limp tail and rear leg weakness, 2.5—Mice have complete limp tail and weakness in both rear legs, 3—Mice have complete limp tail and paralysis in both rear legs, 3.5—Mice have complete limp tail, paralysis in both rear legs, and forelimb weakness. Mice receiving a score of 3.5 were immediately euthanized.

[3] = system: LXR/RXR; experiment: Permissive RXR heterodimer transactivation; assay type: cell-based; conditions: appropriate receptor and reporter constructs
From the text: (§1) This difference represents >2,000-fold selectivity for RXRs over RARs in functional transactivation assays. […] FIG. 4. […] In this regard, RXR agonist 194204 is distinct from other RXR agonists.

[4] = system: PPAR/RXR; experiment: Permissive RXR heterodimer transactivation; assay type: cell-based; conditions: appropriate receptor and reporter constructs
From the text: as §1

[5] = system: Naive CD4+ CD25− FoxP3− cells; experiment: Treg cell differentiation conditions: Foxp3 and α4β7 expression; assay type: cell-based, mouse
Procedure: To determine whether a RXR agonist can induce Treg cell differentiation, the ability of an RXR agonist to promote Treg cell differentiation under Treg cell differentiation conditions was assessed by monitoring Foxp3 and α4β7 expression. Naive CD4^+ CD25^− FoxP3^− cells were purified from a Foxp3-GFP mouse using flow cytometry by sorting and isolating based upon a GFP^− phenotype. These cells were then cultured under Treg cell differentiation conditions by treating the cells with αCD3 and αCD28 polyclonal antibodies in the presence of IL-2 and TGF-β. […] FIG. 1A. […] FIG. 1B.

[6] = system: Naive CD4+ CD25− FoxP3− cells; experiment: Th17 cell differentiation conditions: Foxp3 and IL-17A expression; assay type: cell-based, mouse; conditions: 0, 1, 10, 100 nM, as concentration increased
Procedure: To determine whether a RXR agonist can regulate T cell differentiation, the ability of an RXR agonist to promote Treg cell differentiation and inhibit Th17 cell differentiation under Th17 cell differentiation conditions was assessed by monitoring Foxp3 and IL-17A expression. Naive CD4^+ CD25^− FoxP3^− cells were purified from a Foxp3-GFP mouse using flow cytometry by sorting and isolating based upon a GFP^− phenotype. […] See, e.g., Elias, et al., Retinoic Acid Inhibits Th17 Polarization and Enhances FoxP3 Expression through a Stat-3/Stat-5 Independent Pathway, Blood 111(3): […] (2008). […] FIG. 2A. […] FIG. 2B.

[7] = system: RXRs and RARs; experiment: Functional transactivation assays, RXRs compared with RARs; assay type: cell-based
Procedure: To determine whether a RXR agonist can mediate its effects via an RXRα receptor homodimers, RXRβ receptor homodimers, RXRγ receptor homodimers, or any combination thereof, or the corresponding RAR/RXR heterodimers, receptor-mediated transactivation assays were performed. For transactivation assays assessing RXR homodimer signaling, CV-1 cells were transfected with 1) an expression construct including a full length RXRα, RXRβ, or RXRγ; and 2) a rCRBPII/RXRE-tk-Luc reporter construct that included RXR homodimer-specific RXRE/DR1 responsive element linked to a luciferase gene. For transactivation assays assessing RAR/RXR heterodimer signaling, CV-1 cells were transfected with 1) an expression construct comprising a fusion protein including an estrogen receptor (ER) DNA binding domain linked to the ligand binding domain of RARα, RARβ, or RARγ and 2) a ERE-tk-Luc reporter construct that included an estrogen receptor responsive element linked to a luciferase gene. The ER-RAR fusion proteins provided an accurate readout of only the transfected ER-RAR. […] Data are mean values±SE from five independent experiments.

[8] = system: CNS infiltrating leukocytes; experiment: CNS infiltrating cells in EAE B6 mice (FACS); assay type: in vivo, C57BL/6 (B6) mice; conditions: day 20, versus vehicle control, FIG. 6
Procedure: To determine whether a RXR agonist can reduce central nervous system (CNS) infiltrating cells, C57BL/6 (B6) mice were treated as described in Example 6. On day 20 after immunization, mice were sacrificed and perfused with phosphate buffered saline (PBS). Brain and spinal cord tissue was isolated, digested with DNase and Liberase DL (Roche Diagnostics, Indianapolis, Ind.) for 30 minutes, and homogenized through 70 micron nylon mesh filters. Resulting cells were placed over a Percoll gradient to remove myelin. The remaining cells (microglia and CNS infiltrating cells) were counted, stained for molecules of interest, and run on a flow cytometer. Based on the frequencies obtained by FACS of these cell populations, total cell numbers of CNS infiltrating leukocytes expressing CD45, including CD4^+ T cells and CD11c^+ CD11b^+ myeloid dendritic cells (DC), were calculated.

[9] = molecular target: T1, RXRγ (Homo sapiens, UniProt P48443); experiment: RXR homodimer transactivation assay in CV-1 cells (RXRE-tk-Luc); assay type: cell-based
T1 construct: an expression construct including a full length RXRα, RXRβ, or RXRγ; expressed in transfected cells; host or cells: CV-1 cells
T1 sequence (P48443 1-463): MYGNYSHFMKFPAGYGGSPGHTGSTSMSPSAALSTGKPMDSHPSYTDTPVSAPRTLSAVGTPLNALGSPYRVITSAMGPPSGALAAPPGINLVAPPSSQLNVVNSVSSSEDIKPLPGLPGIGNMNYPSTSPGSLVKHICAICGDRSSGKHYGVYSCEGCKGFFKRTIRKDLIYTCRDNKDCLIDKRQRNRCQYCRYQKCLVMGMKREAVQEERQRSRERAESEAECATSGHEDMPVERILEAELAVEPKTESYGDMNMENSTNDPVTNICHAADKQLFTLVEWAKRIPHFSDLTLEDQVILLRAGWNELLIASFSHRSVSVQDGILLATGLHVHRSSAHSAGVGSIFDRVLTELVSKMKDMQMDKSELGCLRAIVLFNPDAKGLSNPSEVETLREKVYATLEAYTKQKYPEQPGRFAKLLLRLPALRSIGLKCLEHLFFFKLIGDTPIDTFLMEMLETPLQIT

[10] = molecular target: T2, RXRα (Homo sapiens, UniProt P19793); experiment: as above; assay type: cell-based; conditions: 20 hours, luciferase
T2 sequence (P19793 1-462): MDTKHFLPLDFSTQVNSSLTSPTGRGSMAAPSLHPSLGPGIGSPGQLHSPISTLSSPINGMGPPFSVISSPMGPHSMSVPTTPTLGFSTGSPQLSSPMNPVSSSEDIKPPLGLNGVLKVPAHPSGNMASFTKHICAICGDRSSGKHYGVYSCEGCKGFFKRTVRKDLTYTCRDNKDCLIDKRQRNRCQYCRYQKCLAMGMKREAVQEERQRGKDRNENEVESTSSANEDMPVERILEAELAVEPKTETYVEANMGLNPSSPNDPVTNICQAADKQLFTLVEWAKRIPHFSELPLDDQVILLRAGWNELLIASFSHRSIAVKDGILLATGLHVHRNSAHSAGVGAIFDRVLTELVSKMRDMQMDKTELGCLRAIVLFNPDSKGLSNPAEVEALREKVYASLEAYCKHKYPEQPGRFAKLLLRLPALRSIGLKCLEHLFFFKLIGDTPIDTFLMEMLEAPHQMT
From the text: For transactivation assays assessing RXR homodimer signaling, CV-1 cells were transfected with 1) an expression construct including a full length RXRα, RXRβ, or RXRγ; and 2) a rCRBPII/RXRE-tk-Luc reporter construct that included RXR homodimer-specific RXRE/DR1 responsive element linked to a luciferase gene. For transactivation assays assessing RAR/RXR heterodimer signaling, CV-1 cells were transfected with 1) an expression construct comprising a fusion protein including an estrogen receptor (ER) DNA binding domain linked to the ligand binding domain of RARα, RARβ, or RARγ and 2) a ERE-tk-Luc reporter construct that included an estrogen receptor responsive element linked to a luciferase gene. […] Data are mean values±SE from five independent experiments.

[11] = system: experimental autoimmune encephalomyelitis (EAE); experiment: EAE in SJL mice (PLP peptide); assay type: in vivo
Procedure: To determine whether a RXR agonist can attenuate multiple sclerosis, SJL mice were immunized to induce EAE by s.c. injection at the base of their spine with 200 uL of adjuvant containing 200 ug proteolipid proteins (139-151) (PLP peptide; Peptides International, Louisville, Ky.) and 400 ug of non-viable M. tuberculosis H37 desiccate emulsified in a mixture of incomplete Freund's adjuvant and PBS. Mice were also given 150 ng of pertussis toxin in PBS i.p. on the same day as PLP emulsion injection and 2 days later. […] Mice were scored using the scale described in Example 6.

[12] = 50 ug i.p. every other day from day 7, FIG. 7

CC(/C=C/[C@@H]1C[C@]1(C)c1ccc2c(c1)C(C)(C)CCC2(C)C)=C\C(=O)O [RXR agonist 194204, 3,7-dimethyl-6(S),7(S)-methano,7-[1,1,4,4-tetramethyl-1,2,3,4-tetrahydronaphth-7-yl]2(E),4(E) heptadienoic acid]
transactivation of permissive RXR heterodimer FXR/RXR [1]: not to transactivate
symptoms of EAE (disease severity score) [2]: significantly reduces the symptoms of EAE
time course of efficacy [2]: observed after the first administration (day 7) and maintained throughout the course of the study (day 20)
transactivation of permissive RXR heterodimer LXR/RXR [3]: not to transactivate
transactivation of permissive RXR heterodimer PPAR/RXR [4]: not to transactivate
Foxp3+ T cells induced ([5]; Treg conditions (αCD3, αCD28, IL-2, TGF-β), concentrations of 1 nM or higher, FIG. 1A): ~100%
α4β7 expression ([5]; Treg conditions, 0.1, 1.0, 10 nM, FIG. 1B): induced expression of α4β7
Foxp3 expression ([6]; FIG. 2A): Foxp3 expression increased
IL-17A expression ([6]; FIG. 2B): IL-17A expression decreased
more potent in activating RXR receptors rather than RAR receptors ([7]; FIG. 4): > 1,000 fold
activity at RARs ([7]; at ≥1 μM): minimal activity
infiltration of CD4+ cells into the CNS [8]: significant reduction
infiltration of CD11c+ CD11b+ cells (myeloid DC) into the CNS [8]: significant reduction
Efficacy (% of 1 μM 194204) RXRγ [9]: 0.09 ± 0.01 100 % of 1 μM 194204
Efficacy (% of 1 μM 194204) RXRα [10]: 100 % of 1 μM 194204
symptoms of EAE (disease severity score) [11, 12]: significantly reduces the symptoms of EAE
time course of efficacy [11, 12]: observed after the second administration (day 8) and maintained throughout the course of the study (day 14)
Disease Incidence ([11]; 50 ug i.p. every other day from day 7, mice affected/group): 4/6
Death from Disease ([11]; 50 ug i.p. every other day from day 7, mice/group): 0/6
Mean Maximum Score ([11]; 50 ug i.p. every other day from day 7, scale 0-3.5): 1.5 ± 1.4
